{"source": "patent US6355799B1", "about": "“Substituted benzene compounds, process for their preparation, and herbicidal and defoliant compositions containing them” (ISK Americas Incorporated, priority 1997, dated 2002)", "assay_type_in_all_cases": "in vivo", "key": {"[1]": {"system": "johnsongrass (Sorghum halepense, SORHA)", "test": "Post-emerge test, greenhouse herbicide activity screening", "conditions": "rating scale 0-100 (0 no damage, 100 complete death), 14 days after application", "outline": "(§1)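 Sandy loam pots; pre-emerge: sown 1 d pre-spray, surface-watered after, then bottom-watered. Post-emerge: sown 8–21 d before, 2–3 leaf stage, + 0.25% v/v NIS, bottom-watered. Acetone, 187 l/ha track spray, 15–1000 g ai/ha. 0–100 injury score, day 14.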"}, "[2]": {"system": "velvetleaf (Abutilon theophrasti, ABUTH)", "test": "Post-emerge test, greenhouse herbicide activity screening", "conditions": "rating scale 0-100 (0 no damage, 100 complete death), 14 days after application", "outline": "as §1"}, "[3]": {"system": "redroot pigweed (Amaranthus retroflexus, AMARE)", "test": "Post-emerge test, greenhouse herbicide activity screening", "conditions": "rating scale 0-100 (0 no damage, 100 complete death), 14 days after application", "outline": "as §1"}, "[4]": {"system": "green foxtail (Setaria viridis, SETVI)", "test": "Post-emerge test, greenhouse herbicide activity screening", "conditions": "rating scale 0-100 (0 no damage, 100 complete death), 14 days after application", "outline": "as §1"}, "[5]": {"system": "sicklepod (Cassia obtusifolia, CASOB)", "test": "Post-emerge test, greenhouse herbicide activity screening", "conditions": "rating scale 0-100 (0 no damage, 100 complete death), 14 days after application", "outline": "as §1"}, "[6]": {"system": "ivyleaf morningglory (Ipomoea hederacea, IPOHE)", "test": "Post-emerge test, greenhouse herbicide activity screening", "conditions": "rating scale 0-100 (0 no damage, 100 complete death), 14 days after application", "outline": "as §1"}, "[7]": {"system": "large crabgrass (Digitaria sanguinalis, DIGSA)", "test": "Post-emerge test, greenhouse herbicide activity screening", "conditions": "rating scale 0-100 (0 no damage, 100 complete death), 14 days after application", "outline": "as §1"}, "[8]": {"system": "barnyardgrass (Echinochloa crus-galli, ECHCG)", "test": "Post-emerge test, greenhouse herbicide activity screening", "conditions": "rating scale 0-100 (0 no damage, 100 complete death), 14 days after application", "outline": "as §1"}, "[9]": {"system": "lambsquarters (Chenopodium album, CHEAL)", "test": "Post-emerge test, greenhouse herbicide activity screening", "conditions": "rating scale 0-100 (0 no damage, 100 complete death), 14 days after application", "outline": "as §1"}, "[10]": {"system": "johnsongrass (Sorghum halepense, SORHA)", "test": "Pre-emerge test, greenhouse herbicide activity screening", "conditions": "rating scale 0-100, 14 days after application", "outline": "(§2)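 Compounds in acetone were track-sprayed at 15–1000 g ai/ha: pre-emergence onto soil sown the previous day, then top-watered to incorporate and later bottom-watered; post-emergence onto 2–3 leaf plants with 0.25% v/v surfactant, bottom-watered only. Ratings on a 0–100 phytotoxicity scale were taken at day 14.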"}, "[11]": {"system": "velvetleaf (Abutilon theophrasti, ABUTH)", "test": "Pre-emerge test, greenhouse herbicide activity screening", "conditions": "rating scale 0-100, 14 days after application", "outline": "as §2"}, "[12]": {"system": "green foxtail (Setaria viridis, SETVI)", "test": "Pre-emerge test, greenhouse herbicide activity screening", "conditions": "rating scale 0-100, 14 days after application", "outline": "as §2"}, "[13]": {"system": "sicklepod (Cassia obtusifolia, CASOB)", "test": "Pre-emerge test, greenhouse herbicide activity screening", "conditions": "rating scale 0-100, 14 days after application", "outline": "as §2"}, "[14]": {"system": "ivyleaf morningglory (Ipomoea hederacea, IPOHE)", "test": "Pre-emerge test, greenhouse herbicide activity screening", "conditions": "rating scale 0-100, 14 days after application", "outline": "as §2"}, "[15]": {"system": "large crabgrass (Digitaria sanguinalis, DIGSA)", "test": "Pre-emerge test, greenhouse herbicide activity screening", "conditions": "rating scale 0-100, 14 days after application", "outline": "as §2"}, "[16]": {"system": "barnyardgrass (Echinochloa crus-galli, ECHCG)", "test": "Pre-emerge test, greenhouse herbicide activity screening", "conditions": "rating scale 0-100, 14 days after application", "outline": "as §2"}, "[17]": {"system": "lambsquarters (Chenopodium album, CHEAL)", "test": "Pre-emerge test, greenhouse herbicide activity screening", "conditions": "rating scale 0-100, 14 days after application", "outline": "as §2"}, "[18]": {"system": "redroot pigweed (Amaranthus retroflexus, AMARE)", "test": "Pre-emerge test, greenhouse herbicide activity screening", "conditions": "rating scale 0-100, 14 days after application", "outline": "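Compounds in acetone were track-sprayed at 15-1000 g ai/ha (187 l/ha) on sandy loam pots: pre-emerge one day after seeding, post-emerge at 2-3 leaf stage with 0.25% v/v non-ionic surfactant. Phytotoxicity was rated 14 days later on a 0 (no damage) to 100 (complete death) scale.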"}, "[19]": {"system": "upland rice (Oryza sp., var. Tebonnet, RICE)", "test": "Pre-emerge test, crop safety", "conditions": "rating scale 0-100, 14 days after application", "outline": "(§3)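 Rating: 0–100 visual injury, 14 DAA. Application: acetone, 187 l/ha, 15–1000 g ai/ha, flat-fan track sprayer with nozzle 40–45 cm above soil or canopy. Post-emerge runs used 0.25% v/v surfactant on 2–3 leaf plants.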"}, "[20]": {"system": "field corn (Zea mays L., var. Dekalb 535, CORN)", "test": "Pre-emerge test, crop safety", "conditions": "rating scale 0-100, 14 days after application", "outline": "as §3"}, "[21]": {"system": "upland rice (Oryza sp., var. Tebonnet, RICE)", "test": "Post-emerge test, crop safety", "conditions": "rating scale 0-100 (0 no damage, 100 complete death), 14 days after application", "outline": "as §3"}, "[22]": {"system": "field corn (Zea mays L., var. Dekalb 535, CORN)", "test": "Post-emerge test, crop safety", "conditions": "rating scale 0-100 (0 no damage, 100 complete death), 14 days after application", "outline": "as §3"}}}
{"molecule": "COc1c(Cl)cc(F)c(-n2c(=O)cc(C(F)(F)F)n(C)c2=O)c1CC(Cl)C(=O)OCC(Br)CBr", "note": "(single isomer, unassigned) [14-30]", "values": [{"measurement": "Post-emerge Herbicidal Activity, phytotoxicity rating SORHA", "setting": "[1]; Rate 63 g ai/ha", "value": 0}, {"measurement": "Post-emerge Herbicidal Activity, phytotoxicity rating SORHA", "setting": "[1]; Rate 250 g ai/ha", "value": 50}, {"measurement": "Post-emerge Herbicidal Activity, phytotoxicity rating ABUTH", "setting": "[2]; Rate 63 g ai/ha", "value": 60}, {"measurement": "Post-emerge Herbicidal Activity, phytotoxicity rating ABUTH", "setting": "[2]; Rate 250 g ai/ha", "value": 100}, {"measurement": "Post-emerge Herbicidal Activity, phytotoxicity rating AMARE", "setting": "[3]; Rate 63 g ai/ha", "value": 70}, {"measurement": "Post-emerge Herbicidal Activity, phytotoxicity rating AMARE", "setting": "[3]; Rate 250 g ai/ha", "value": 100}, {"measurement": "Post-emerge Herbicidal Activity, phytotoxicity rating SETVI", "setting": "[4]; Rate 63 g ai/ha", "value": 0}, {"measurement": "Post-emerge Herbicidal Activity, phytotoxicity rating SETVI", "setting": "[4]; Rate 250 g ai/ha", "value": 30}, {"measurement": "Post-emerge Herbicidal Activity, phytotoxicity rating CASOB", "setting": "[5]; Rate 63 g ai/ha", "value": 20}, {"measurement": "Post-emerge Herbicidal Activity, phytotoxicity rating CASOB", "setting": "[5]; Rate 250 g ai/ha", "value": 60}, {"measurement": "Post-emerge Herbicidal Activity, phytotoxicity rating IPOHE", "setting": "[6]; Rate 63 g ai/ha", "value": 0}, {"measurement": "Post-emerge Herbicidal Activity, phytotoxicity rating IPOHE", "setting": "[6]; Rate 250 g ai/ha", "value": 50}, {"measurement": "Post-emerge Herbicidal Activity, phytotoxicity rating DIGSA", "setting": "[7]; Rate 63 g ai/ha", "value": 60}, {"measurement": "Post-emerge Herbicidal Activity, phytotoxicity rating DIGSA", "setting": "[7]; Rate 250 g ai/ha", "value": 100}, {"measurement": "Post-emerge Herbicidal Activity, phytotoxicity rating ECHCG", "setting": "[8]; Rate 63 g ai/ha", "value": 100}, {"measurement": "Post-emerge Herbicidal Activity, phytotoxicity rating ECHCG", "setting": "[8]; Rate 250 g ai/ha", "value": 100}, {"measurement": "Post-emerge Herbicidal Activity, phytotoxicity rating CHEAL", "setting": "[9]; Rate 63 g ai/ha", "value": 50}, {"measurement": "Post-emerge Herbicidal Activity, phytotoxicity rating CHEAL", "setting": "[9]; Rate 250 g ai/ha", "value": 100}, {"measurement": "Pre-emerge herbicidal activity, phytotoxicity rating SORHA", "setting": "[10]; 63 g ai/ha", "value": 0}, {"measurement": "Pre-emerge herbicidal activity, phytotoxicity rating SORHA", "setting": "[10]; 250 g ai/ha", "value": 0}, {"measurement": "Pre-emerge herbicidal activity, phytotoxicity rating ABUTH", "setting": "[11]; 63 g ai/ha", "value": 0}, {"measurement": "Pre-emerge herbicidal activity, phytotoxicity rating ABUTH", "setting": "[11]; 250 g ai/ha", "value": 50}, {"measurement": "Pre-emerge herbicidal activity, phytotoxicity rating SETVI", "setting": "[12]; 63 g ai/ha", "value": 0}, {"measurement": "Pre-emerge herbicidal activity, phytotoxicity rating SETVI", "setting": "[12]; 250 g ai/ha", "value": 0}, {"measurement": "Pre-emerge herbicidal activity, phytotoxicity rating CASOB", "setting": "[13]; 63 g ai/ha", "value": 0}, {"measurement": "Pre-emerge herbicidal activity, phytotoxicity rating CASOB", "setting": "[13]; 250 g ai/ha", "value": 0}, {"measurement": "Pre-emerge herbicidal activity, phytotoxicity rating IPOHE", "setting": "[14]; 63 g ai/ha", "value": 0}, {"measurement": "Pre-emerge herbicidal activity, phytotoxicity rating IPOHE", "setting": "[14]; 250 g ai/ha", "value": 0}, {"measurement": "Pre-emerge herbicidal activity, phytotoxicity rating DIGSA", "setting": "[15]; 63 g ai/ha", "value": 0}, {"measurement": "Pre-emerge herbicidal activity, phytotoxicity rating DIGSA", "setting": "[15]; 250 g ai/ha", "value": 90}, {"measurement": "Pre-emerge herbicidal activity, phytotoxicity rating ECHCG", "setting": "[16]; 63 g ai/ha", "value": 0}, {"measurement": "Pre-emerge herbicidal activity, phytotoxicity rating ECHCG", "setting": "[16]; 250 g ai/ha", "value": 0}, {"measurement": "Pre-emerge herbicidal activity, phytotoxicity rating CHEAL", "setting": "[17]; 63 g ai/ha", "value": 0}, {"measurement": "Pre-emerge herbicidal activity, phytotoxicity rating CHEAL", "setting": "[17]; 250 g ai/ha", "value": 80}, {"measurement": "Pre-emerge herbicidal activity, phytotoxicity rating AMARE", "setting": "[18]; 63 g ai/ha", "value": 70}, {"measurement": "Pre-emerge herbicidal activity, phytotoxicity rating AMARE", "setting": "[18]; 250 g ai/ha", "value": 100}, {"measurement": "Pre-emerge phytotoxicity rating, crop damage RICE", "setting": "[19]; 63 g ai/ha", "value": 0}, {"measurement": "Pre-emerge phytotoxicity rating, crop damage RICE", "setting": "[19]; 250 g ai/ha", "value": 0}, {"measurement": "Pre-emerge phytotoxicity rating, crop damage CORN", "setting": "[20]; 63 g ai/ha", "value": 0}, {"measurement": "Pre-emerge phytotoxicity rating, crop damage CORN", "setting": "[20]; 250 g ai/ha", "value": 0}, {"measurement": "Post-emerge phytotoxicity rating RICE (crop damage)", "setting": "[21]; Rate 63 g ai/ha", "value": 0}, {"measurement": "Post-emerge phytotoxicity rating RICE (crop damage)", "setting": "[21]; Rate 250 g ai/ha", "value": 0}, {"measurement": "Post-emerge phytotoxicity rating CORN (crop damage)", "setting": "[22]; Rate 63 g ai/ha", "value": 10}, {"measurement": "Post-emerge phytotoxicity rating CORN (crop damage)", "setting": "[22]; Rate 250 g ai/ha", "value": 20}]}
